Laboratory results published in patent US20170190671A1, “BIS(ARYL)CATECHOL DERIVATIVES AS HERBICIDES” (E I DU PONT DE NEMOURS AND COMPANY, priority 2014, published 2017).

Columns and labels:
Type in all cases: in vivo
Details in all cases: scale 0 to 100
corn (Zea mays) [1] = test: Test E preemergence
Procedure, shortened: (§1)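 Test chemicals, formulated in a non-phytotoxic solvent with surfactant, are applied to silt loam soil after sowing or sprayed over young plants (1–4 leaves) in potting medium. Plants are then kept in a greenhouse for 14 to 21 days and scored 0–100 for control.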

[2] = tested on: giant foxtail (Setaria faberii); test: Test E preemergence
Procedure, shortened: as §1

soybean (Glycine max) [3] = test: Test E preemergence
Procedure, shortened: as §1

[4] = tested on: velvetleaf (Abutilon theophrasti); test: Test E preemergence
Procedure, shortened: as §1

[5] = tested on: Brazilian crabgrass (Digitaria horizontalis); test: Test E postemergence
From the text: (§2) Seeds of plant species selected from corn (Zea mays), soybean (Glycine max), velvetleaf (Abutilon theophrasti), cocklebur (common cocklebur, Xanthium strumarium), lambsquarters (Chenopodium album), wild poinsettia (Euphorbia heterophylla), palmer pigweed (Amaranthus palmeri), waterhemp (common waterhemp, Amaranthus rudis), surinam grass (Brachiaria decumbens), large (Lg) crabgrass (Digitaria sanguinalis), Brazilian crabgrass (Digitaria horizontalis), fall panicum (Panicum dichotomiflorum), giant foxtail (Setaria faberii), green foxtail (Setaria viridis), goosegrass (Eleusine indica), johnsongrass (Sorghum halepense), ragweed (common ragweed, Ambrosia elatior), barnyardgrass (Echinochloa crus-galli), sandbur (southern sandbur, Cenchrus echinatus), arrowleaf sida (Sida rhombifolia), Italian ryegrass (Lolium multiflorum), dayflower (Virginia (VA) dayflower, Commelina virginica), field bindweed (Convolvulus arvensis), morningglory (Ipomoea coccinea), nightshade (eastern black nightshade, Solanum ptycanthum), kochia (Kochia scoparia), yellow nutsedge (Cyperus esculentus), horseweed (Conyza canadensis), and hairy beggarticks (Bidens pilosa), were planted into a silt loam soil and treated preemergence with test chemicals formulated in a non-phytotoxic solvent mixture which included a surfactant.
(§3) At the same time, plants from these crop and weed species and also waterhemp_RES1, (ALS & Triazine resistant common waterhemp, Amaranthus rudis), and waterhemp_RES2, (ALS & HPPD resistant common waterhemp, Amaranthus rudis) were planted in pots containing Redi-Earth® planting medium (Scotts Company, 14111 Scottslawn Road, Marysville, Ohio 43041) comprising spaghnum peat moss, vermiculite, wetting agent and starter nutrients were treated with postemergence applications of test chemicals formulated in the same manner. Plants ranged in height from 2 to 18 cm for postemergence treatments (1- to 4-leaf stage). Treated plants and controls were maintained in a greenhouse for 14 to 21 days, after which time all species were compared to controls and visually evaluated. Plant response ratings, summarized in Table E, are based on a scale of 0 to 100 where 0 is no effect and 100 is complete control. A dash (-) response means no test result.

[6] = tested on: arrowleaf sida (Sida rhombifolia); test: Test E postemergence
From the text: as §2, §3

corn (Zea mays) [7] = test: Test E postemergence
From the text: as §2, §3

[8] = tested on: fall panicum (Panicum dichotomiflorum); test: Test E postemergence
From the text: as §2, §3

[9] = tested on: hairy beggarticks (Bidens pilosa); test: Test E postemergence
From the text: as §2, §3

kochia (Kochia scoparia) = test: Test E postemergence
From the text: as §2, §3

[10] = tested on: palmer pigweed (Amaranthus palmeri); test: Test E postemergence
From the text: as §2, §3

soybean (Glycine max) [11] = test: Test E postemergence
From the text: as §2, §3

[12] = tested on: waterhemp (common waterhemp, Amaranthus rudis); test: Test E postemergence
From the text: as §2, §3

[13] = tested on: waterhemp_RES2 (ALS & HPPD resistant common waterhemp, Amaranthus rudis); test: Test E postemergence
From the text: as §2, §3

N#Cc1cccc(Oc2ncc(Cl)cn2)c1Oc1ncc(C(F)(F)F)cn1 [Compound 38, 3-[(5-chloro-2-pyrimidinyl)oxy]-2-[[5-(trifluoromethyl)-2-pyrimidinyl]oxy]-benzonitrile]
Plant response rating, Corn (corn (Zea mays) [1]; 16 g ai/ha): 0
Plant response rating, Corn (corn (Zea mays) [1]; 31 g ai/ha): 0
Plant response rating, Corn (corn (Zea mays) [1]; 62 g ai/ha): 35
Plant response rating, Corn (corn (Zea mays) [1]; 125 g ai/ha): 50
Plant response rating, Foxtail, Giant ([2]; 16 g ai/ha): 5
Plant response rating, Foxtail, Giant ([2]; 31 g ai/ha): 70
Plant response rating, Foxtail, Giant ([2]; 62 g ai/ha): 100
Plant response rating, Foxtail, Giant ([2]; 125 g ai/ha): 100
Plant response rating, Soybean (soybean (Glycine max) [3]; 16 g ai/ha): 15
Plant response rating, Soybean (soybean (Glycine max) [3]; 31 g ai/ha): 15
Plant response rating, Soybean (soybean (Glycine max) [3]; 62 g ai/ha): 95
Plant response rating, Soybean (soybean (Glycine max) [3]; 125 g ai/ha): 80
Plant response rating, Velvetleaf ([4]; 16 g ai/ha): 20
Plant response rating, Velvetleaf ([4]; 31 g ai/ha): 65
Plant response rating, Velvetleaf ([4]; 62 g ai/ha): 85
Plant response rating, Velvetleaf ([4]; 125 g ai/ha): 100
Plant response rating, Crabgrass, Brazil ([5]; 16 g ai/ha): 10
Plant response rating, Crabgrass, Brazil ([5]; 31 g ai/ha): 15
Plant response rating, Crabgrass, Brazil ([5]; 62 g ai/ha): 20
Plant response rating, Crabgrass, Brazil ([5]; 125 g ai/ha): 20
Plant response rating, Arrowleaf Sida ([6]; 16 g ai/ha): 60
Plant response rating, Arrowleaf Sida ([6]; 31 g ai/ha): 80
Plant response rating, Arrowleaf Sida ([6]; 62 g ai/ha): 90
Plant response rating, Arrowleaf Sida ([6]; 125 g ai/ha): 90
Plant response rating, Corn (corn (Zea mays) [7]; 16 g ai/ha): 0
Plant response rating, Corn (corn (Zea mays) [7]; 31 g ai/ha): 0
Plant response rating, Corn (corn (Zea mays) [7]; 62 g ai/ha): 15
Plant response rating, Corn (corn (Zea mays) [7]; 125 g ai/ha): 20
Plant response rating, Panicum, Fall ([8]; 16 g ai/ha): 10
Plant response rating, Panicum, Fall ([8]; 31 g ai/ha): 10
Plant response rating, Panicum, Fall ([8]; 62 g ai/ha): 10
Plant response rating, Beggarticks ([9]; 16 g ai/ha): 35
Plant response rating, Beggarticks ([9]; 31 g ai/ha): 40
Plant response rating, Beggarticks ([9]; 62 g ai/ha): 40
Plant response rating, Beggarticks ([9]; 125 g ai/ha): 50
Plant response rating, Kochia (kochia (Kochia scoparia); 16 g ai/ha): 80
Plant response rating, Kochia (kochia (Kochia scoparia); 31 g ai/ha): 80
Plant response rating, Kochia (kochia (Kochia scoparia); 62 g ai/ha): 100
Plant response rating, Kochia (kochia (Kochia scoparia); 125 g ai/ha): 98
Plant response rating, Pigweed, Palmer ([10]; 16 g ai/ha): 60
Plant response rating, Pigweed, Palmer ([10]; 31 g ai/ha): 75
Plant response rating, Pigweed, Palmer ([10]; 62 g ai/ha): 60
Plant response rating, Pigweed, Palmer ([10]; 125 g ai/ha): 90
Plant response rating, Soybean (soybean (Glycine max) [11]; 16 g ai/ha): 70
Plant response rating, Soybean (soybean (Glycine max) [11]; 31 g ai/ha): 80
Plant response rating, Soybean (soybean (Glycine max) [11]; 62 g ai/ha): 95
Plant response rating, Soybean (soybean (Glycine max) [11]; 125 g ai/ha): 98
Plant response rating, Waterhemp ([12]; 16 g ai/ha): 85
Plant response rating, Waterhemp ([12]; 31 g ai/ha): 90
Plant response rating, Waterhemp ([12]; 62 g ai/ha): 95
Plant response rating, Waterhemp ([12]; 125 g ai/ha): 95
Plant response rating, Waterhemp_RES2 ([13]; 16 g ai/ha): 75
Plant response rating, Waterhemp_RES2 ([13]; 31 g ai/ha): 85
Plant response rating, Waterhemp_RES2 ([13]; 62 g ai/ha): 90
Plant response rating, Waterhemp_RES2 ([13]; 125 g ai/ha): 95

Fc1cccc(Oc2ncc(Cl)cn2)c1Oc1ncc(C(F)(F)F)cn1 [Compound 43, 5-chloro-2-[5-fluoro-6-[[5-(trifluoromethyl)-2-pyrimidinyl]oxy]phenoxy]pyrimidine]
Plant response rating, Corn (corn (Zea mays) [1]; 31 g ai/ha): 0
Plant response rating, Corn (corn (Zea mays) [1]; 125 g ai/ha): 50
Plant response rating, Foxtail, Giant ([2]; 31 g ai/ha): 85
Plant response rating, Foxtail, Giant ([2]; 125 g ai/ha): 100
Plant response rating, Soybean (soybean (Glycine max) [3]; 31 g ai/ha): 30
Plant response rating, Soybean (soybean (Glycine max) [3]; 125 g ai/ha): 65
Plant response rating, Velvetleaf ([4]; 31 g ai/ha): 70
Plant response rating, Velvetleaf ([4]; 125 g ai/ha): 100
Plant response rating, Crabgrass, Brazil ([5]; 31 g ai/ha): 25
Plant response rating, Crabgrass, Brazil ([5]; 125 g ai/ha): 40
Plant response rating, Arrowleaf Sida ([6]; 31 g ai/ha): 80
Plant response rating, Arrowleaf Sida ([6]; 125 g ai/ha): 95
Plant response rating, Corn (corn (Zea mays) [7]; 31 g ai/ha): 5
Plant response rating, Corn (corn (Zea mays) [7]; 125 g ai/ha): 15
Plant response rating, Panicum, Fall ([8]; 31 g ai/ha): 40
Plant response rating, Panicum, Fall ([8]; 125 g ai/ha): 50
Plant response rating, Beggarticks ([9]; 31 g ai/ha): 50
Plant response rating, Beggarticks ([9]; 125 g ai/ha): 60
Plant response rating, Kochia (kochia (Kochia scoparia); 31 g ai/ha): 75
Plant response rating, Kochia (kochia (Kochia scoparia); 125 g ai/ha): 95
Plant response rating, Pigweed, Palmer ([10]; 31 g ai/ha): 80
Plant response rating, Pigweed, Palmer ([10]; 125 g ai/ha): 90
Plant response rating, Soybean (soybean (Glycine max) [11]; 31 g ai/ha): 70
Plant response rating, Soybean (soybean (Glycine max) [11]; 125 g ai/ha): 95
Plant response rating, Waterhemp ([12]; 31 g ai/ha): 65
Plant response rating, Waterhemp ([12]; 125 g ai/ha): 95
Plant response rating, Waterhemp_RES2 ([13]; 31 g ai/ha): 65
Plant response rating, Waterhemp_RES2 ([13]; 125 g ai/ha): 80
